Experimental data reported in patent publication US20100267561A1, “HERBICIDAL PYRIDAZINONE DERIVATIVES” (priority 2007, published 2010).

Tests used:
Format in all cases: in vivo
[1] = test system: Italian ryegrass (Lolium multiflorum); test: Test B pre-/postemergence plant response
In short: (§1)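 Seeds were sown and sprayed preemergence, while plants at 2 to 18 cm (1- to 4-leaf stage) got postemergence sprays. Compounds were formulated in a non-phytotoxic solvent mixture with surfactant. After 13 to 15 days in a greenhouse, injury was rated visually against untreated controls, 0 (no effect) to 100 (complete control).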

[2] = test system: Russian thistle (Salsola iberica); test: Test B pre-/postemergence plant response; conditions: Preemergence; for Russian Thistle plant response rating: scale 0 to 100
In short: as §1

[3] = test system: bermudagrass (Cynodon dactylon); test: Test B pre-/postemergence plant response; conditions: for Bermudagrass plant response rating: 8 g ai/ha
In short: as §1

[4] = test system: cocklebur (Xanthium strumarium); test: Test B pre-/postemergence plant response; conditions: for Cocklebur plant response rating: 8 g ai/ha
In short: as §1

[5] = test system: eastern black (E.B.) nightshade (Solanum ptycanthum); test: Test B pre-/postemergence plant response; conditions: Preemergence; for Nightshade, E. B. plant response rating: scale 0 to 100
In short: as §1

[6] = test system: goosegrass (Eleusine indica); test: Test B pre-/postemergence plant response
In short: as §1

[7] = test system: green foxtail (Setaria viridis); test: Test B pre-/postemergence plant response
In short: as §1

[8] = test system: johnsongrass (Sorghum halepense); test: Test B pre-/postemergence plant response
In short: as §1

[9] = test system: large crabgrass (Digitaria sanguinalis); test: Test B pre-/postemergence plant response
In short: as §1

[10] = test system: morningglory (Ipomoea coccinea); test: Test B pre-/postemergence plant response
In short: as §1

soybean (Glycine max) = test: Test B pre-/postemergence plant response
In short: as §1

[11] = test system: surinam grass (Brachiaria decumbens); test: Test B pre-/postemergence plant response
In short: as §1

[12] = test system: wheat (Triticum aestivum); test: Test B pre-/postemergence plant response
In short: as §1

[13] = test system: chickweed (Stellaria media); test: Test B postemergence plant response; conditions: for Plant response rating, Chickweed: Postemergence
In short: (§2)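 Following treatment of plants 2 to 18 cm high after emergence, pots were held under glass for 13 to 15 days; efficacy was then graded visually, 100 denoting complete control and a dash no test result.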

[14] = test system: windgrass (Apera spica-venti); test: Test B postemergence plant response; conditions: for Windgrass plant response rating: postemergence, 0-100 scale; for Plant response rating, Windgrass: Postemergence
In short: as §2

[15] = test system: winter barley (Hordeum vulgare); test: Test B postemergence plant response; conditions: for Plant response rating, Barley: Postemergence, scale 0 to 100, 0 no effect, 100 complete control
In short: as §2

[16] = 8 g ai/ha, postemergence, 0-100 scale
[17] = 16 g ai/ha, postemergence, 0-100 scale
[18] = Postemergence, 31 g ai/ha, scale 0 to 100
[19] = Postemergence, 62 g ai/ha, scale 0 to 100, 0 no effect, 100 complete control
[20] = Preemergence, 31 g ai/ha, scale 0 to 100 (0 no effect, 100 complete control)
[21] = Preemergence, 62 g ai/ha, 0 to 100 scale, 0 no effect, 100 complete control
[22] = Preemergence, 8 g ai/ha, scale 0 to 100
[23] = Preemergence, 16 g ai/ha, scale 0 to 100
[24] = 31 g ai/ha, scale 0 to 100 (0 no effect, 100 complete control)
[25] = 62 g ai/ha, 0 to 100 scale, 0 no effect, 100 complete control
[26] = Postemergence, 16 g ai/ha, scale 0 to 100
[27] = Preemergence, 16 g ai/ha, scale 0 to 100 (0 no effect, 100 complete control)
[28] = 62 g ai/ha, scale 0 to 100, 0 no effect, 100 complete control

**Q.** What does the source list for `CCCc1cc(-c2ccc(C(F)(F)F)cc2)nn1-c1c(O)cnn(C)c1=O` [Compound 72]?
**A.** Ryegrass, Italian plant response rating [1, 16]: 80; Ryegrass, Italian plant response rating [1, 17]: 100; Plant response rating, Ryegrass, Italian [1, 18]: 100; Plant response rating, Ryegrass, Italian [1, 19]: 100; Plant response rating, Ryegrass, Italian [1, 20]: 100; Plant response rating, Ryegrass, Italian [1, 21]: 100; Ryegrass, Italian plant response rating [1, 22]: 75; Ryegrass, Italian plant response rating [1, 23]: 90; Plant response rating, Russian Thistle [2, 24]: 0; Plant response rating, Russian Thistle [2, 25]: 0; Russian Thistle plant response rating ([2]; 8 g ai/ha): 0; Russian Thistle plant response rating ([2]; 16 g ai/ha): 0; Bermudagrass plant response rating ([3]; postemergence, 0-100 scale): 0; Plant response rating, Bermudagrass [3, 26]: 50; Plant response rating, Bermudagrass [3, 18]: 60; Plant response rating, Bermudagrass [3, 19]: 80; Bermudagrass plant response rating ([3]; Preemergence, scale 0 to 100 (0 no effect, 100 complete control)): 40; Plant response rating, Bermudagrass [3, 27]: 100; Plant response rating, Bermudagrass [3, 20]: 100; Plant response rating, Bermudagrass [3, 21]: 100; Cocklebur plant response rating ([4]; postemergence, 0-100 scale): 0; Plant response rating, Cocklebur [4, 26]: 0; Plant response rating, Cocklebur [4, 18]: 0; Plant response rating, Cocklebur [4, 19]: 0; Plant response rating, Cocklebur [4, 27]: 0; Plant response rating, Cocklebur [4, 20]: 0; Plant response rating, Cocklebur [4, 21]: 0; Cocklebur plant response rating ([4]; Preemergence, scale 0 to 100): 0; Plant response rating, Nightshade, E. B. [5, 24]: 0; Plant response rating, Nightshade, E. B. [5, 25]: 30; Nightshade, E. B. plant response rating ([5]; 8 g ai/ha): 0; Nightshade, E. B. plant response rating ([5]; 16 g ai/ha): 0; Goosegrass plant response rating [6, 16]: 30; Goosegrass plant response rating [6, 17]: 30; Plant response rating, Goosegrass [6, 18]: 35; Plant response rating, Goosegrass [6, 19]: 35; Plant response rating, Goosegrass [6, 20]: 95; Plant response rating, Goosegrass [6, 21]: 100; Goosegrass plant response rating [6, 22]: 95; Goosegrass plant response rating [6, 23]: 95; Foxtail, Green plant response rating [7, 16]: 98; Plant response rating, Foxtail, Green [7, 26]: 98; Plant response rating, Foxtail, Green [7, 18]: 100; Plant response rating, Foxtail, Green [7, 19]: 100; Plant response rating, Foxtail, Green [7, 20]: 100; Plant response rating, Foxtail, Green [7, 21]: 100; Foxtail, Green plant response rating [7, 22]: 25; Foxtail, Green plant response rating [7, 23]: 100; Johnsongrass plant response rating [8, 16]: 70; Johnsongrass plant response rating [8, 17]: 75; Plant response rating, Johnsongrass [8, 19]: 100; Plant response rating, Johnsongrass [8, 20]: 95; Plant response rating, Johnsongrass [8, 21]: 100; Johnsongrass plant response rating [8, 22]: 50; Johnsongrass plant response rating [8, 23]: 55; Crabgrass, Large plant response rating [9, 16]: 95; Plant response rating, Crabgrass, Large [9, 26]: 100; Plant response rating, Crabgrass, Large [9, 18]: 100; Plant response rating, Crabgrass, Large [9, 19]: 100; Plant response rating, Crabgrass, Large [9, 20]: 80; Plant response rating, Crabgrass, Large [9, 21]: 100; Crabgrass, Large plant response rating [9, 22]: 30; Crabgrass, Large plant response rating [9, 23]: 50; Morningglory plant response rating [10, 16]: 0; Morningglory plant response rating [10, 17]: 0; Plant response rating, Morningglory [10, 18]: 0; Plant response rating, Morningglory [10, 19]: 0; Plant response rating, Morningglory [10, 20]: 0; Plant response rating, Morningglory [10, 21]: 0; Morningglory plant response rating [10, 22]: 0; Morningglory plant response rating [10, 23]: 0; Soybean plant response rating (soybean (Glycine max); [16]): 0; Soybean plant response rating (soybean (Glycine max); [17]): 0; Plant response rating, Soybean (soybean (Glycine max); [18]): 0; Plant response rating, Soybean (soybean (Glycine max); [19]): 0; Plant response rating, Soybean (soybean (Glycine max); [20]): 0; Plant response rating, Soybean (soybean (Glycine max); [21]): 0; Soybean plant response rating (soybean (Glycine max); [22]): 0; Soybean plant response rating (soybean (Glycine max); [23]): 0; Surinam Grass plant response rating [11, 16]: 95; Surinam Grass plant response rating [11, 17]: 95; Plant response rating, Surinam Grass [11, 18]: 98; Plant response rating, Surinam Grass [11, 19]: 100; Plant response rating, Surinam Grass [11, 20]: 85; Plant response rating, Surinam Grass [11, 21]: 100; Surinam Grass plant response rating [11, 23]: 85; Wheat plant response rating [12, 16]: 85; Wheat plant response rating [12, 17]: 85; Plant response rating, Wheat [12, 18]: 85; Plant response rating, Wheat [12, 19]: 95; Plant response rating, Wheat [12, 20]: 80; Plant response rating, Wheat [12, 21]: 90; Wheat plant response rating [12, 23]: 35; Chickweed plant response rating [13, 16]: 0; Plant response rating, Chickweed ([13]; 16 g ai/ha, scale 0 to 100): 0; Plant response rating, Chickweed ([13]; 31 g ai/ha, scale 0 to 100): 0; Plant response rating, Chickweed [13, 28]: 0; Windgrass plant response rating ([14]; 8 g ai/ha): 85; Windgrass plant response rating ([14]; 16 g ai/ha): 100; Plant response rating, Windgrass ([14]; 31 g ai/ha, scale 0 to 100): 100; Plant response rating, Windgrass [14, 28]: 100; Barley plant response rating [15, 16]: 0; Plant response rating, Barley ([15]; 16 g ai/ha): 0; Plant response rating, Barley ([15]; 31 g ai/ha): 0; Plant response rating, Barley ([15]; 62 g ai/ha): 95
